According to a melting point compilation (Tetko et al.; mined from patent text by program, amines drawn as free bases though some values may be those of a salt):

Row | SMILES | melting point [°C]
1 | CC1(C)NC(=O)c2cc(C#N)ccc2O1 | 127 to 129
2 | Oc1ccccc1CNCc1cccc(CNCc2ccccc2O)c1 | 61 to 63
3 | CC(=O)NC(=S)NCC1CC2c3cccc4[nH]cc(c34)CC2N(C)C1 (configuration not stated) | 204 to 205
4 | CC(=NO)c1cc2c(s1)CCCN(CCCCN1CCN(c3ncccn3)CC1)C2=O | 144 to 146
5 | CCn1ncc2c1ncc1c(Cl)nc3ncnn3c12 | 196 to 197
6 | CC(C)(C)Nc1cc(N2CCNCC2)nc(NC(C)(C)C)n1 | 142 to 145
7 | COC1CCN(S(=O)(=O)c2ccc(S(N)(=O)=O)cc2C(F)(F)F)CC1 | 136 to 137
8 | O=C(Cl)C=Cc1cccc([N+](=O)[O-])c1 | 81 to 83.5
9 | CNC(=O)C(CC(O)CO)N(CCN(CCN(CCN(CC(=O)O)C(CC(O)CO)C(=O)NC)CC(=O)O)CC(=O)O)CC(=O)O (configuration not stated) | 86 to 92
10 | NC(=O)N1CC(Oc2ccc(C(F)(F)F)cc2Cl)C1 | 156 to 159
11 | COCN1C(C)=C(C(=O)OCOC(=O)C(C)(C)C)C(c2ccccc2C(F)(F)F)C(C(=O)OCOC(=O)C(C)(C)C)=C1C | 96 to 97
12 | CN(C)c1ccc(C2OC(=O)c3cc(N(C)C)ccc32)c(Cl)c1 (configuration not stated) | 159 to 160
13 | CCOC(=O)C(Cc1ccccc1)N(CC)C(=O)OC(C)(C)C (configuration not stated) | 58 to 61.5
14 | CC[C@@]12C[C@H](O)[C@](O)(c3ccccc3)C[C@H]1CCc1cc(O)ccc12 | 191 to 192
15 | Cn1nc(Cl)c(Cl)cc1=O | 97
16 | CC(=O)NC1CCNC(c2cccc(Oc3ccccc3)n2)C1 (configuration not stated) | 104 to 106
17 | CCCCC(C)(OC)C(O)C=CC1C(O)CC(=O)C1CCCCCCC(=O)OC (configuration not stated) | 44 to 45
18 | O=CNCC1CCc2ccccc2N(C=O)C1 (configuration not stated) | 128
19 | CC(C)(C)OC(=O)N[C@@H](Cc1ccccc1)C(=O)NCCCN1CCN(CCCNc2cccc3c2C(=O)c2ccccc2C3=O)CC1 | 168
20 | CC(=CC(=O)O)c1cccc([N+](=O)[O-])c1 | 147 to 149
21 | CC(C)OC(=O)NC12CC1CN(Cc1ccccc1)C2 (configuration not stated) | 88
22 | O=C1NCc2cc(C(=O)CCCl)ccc2N1 | > 270
23 | c1n[nH]c2c1Cc1[nH]ncc1-2 | 180
24 | CCOc1cc(C=CC(C)=O)ccc1O | 98 to 100
25 | C=CCc1cc(COC(=O)C(C)(C)C)ccc1C#CC1(O)CN2CCC1CC2 (configuration not stated) | 73
26 | Nc1cc(S(N)(=O)=O)sc1Cl | 138
27 | O=C(OCc1ccccc1)C(CO)N(C(=O)OCc1ccccc1)C(=O)c1ccccc1 (configuration not stated) | 94 to 95

Row | SMILES | melting point [°C]
28 | CC1(C)CCC(C)(C)c2cc(CC#Cc3ccc(C(=O)O)c(O)c3)ccc21 | 178 to 180
29 | COC(=O)c1cnc(C(=O)OC)c(SCc2cccc(C(F)(F)F)c2)c1 | 102 to 106
30 | CCC1Cc2c(C)ccc(NNC(=O)OC)c2O1 (configuration not stated) | 98 to 100
31 | COc1cc(I)ccc1C(=O)O | 144 to 146
32 | CCC(C#N)(C(=O)N1CCOCC1)c1ccccc1 (configuration not stated) | 88 to 90
33 | NC(=O)N(O)CCOCc1ccoc1 | 99 to 101
34 | CCOc1csc(C)c1C1OC(=O)NC1=O (configuration not stated) | 136 to 138
35 | Cc1cc(-c2cccc(Cl)c2)nnc1Cl | 138 to 140
36 | COc1c(F)cc2c(=O)c(C(=O)O)cn3c2c1CCC3C (configuration not stated) | 234 to 236
37 | OCCC1(c2ccc(Cl)c(Cl)c2)CCNC1 (configuration not stated) | 91 to 94
38 | O=C(CN1CCOCC1)N1CCN(Cc2ccc3c(c2)-c2[nH]nc(-c4ccsc4)c2C3)CC1 | 240 to 242
39 | CC(=O)Nc1nc(NCCSC(C)=O)n[nH]1 | 127 to 130
40 | O=C(O)CC(Cn1cnc2c(=O)[nH]cnc21)C(=O)O (configuration not stated) | 130 to 135
41 | COc1cccc(C=C2SC(=S)NC2=O)c1OC | 268 to 269
42 | CCNC(=O)c1c(C)cccc1[Si](C)(C)C | 64 to 66
43 | Cn1c(Cl)c(C(=O)O)c2ccc(Cl)cc21 | 243 to 245
44 | O=C(C1=NC=CC(Br)(C(=O)Nc2ccccc2)C1)c1ccccc1 (configuration not stated) | 137 to 138
45 | O=C(CF)Nc1ccccc1 | 77 to 78.5
46 | S=C1Nc2cccnc2Nc2cscc21 | 255 to 260
47 | COc1cc2c(cc1Nc1ncc(Cl)c(N[C@H]3[C@@H](C(N)=O)[C@@H]4C=C[C@H]3C4)n1)CCN(CC(=O)N1CCOCC1)CC2 | 163
48 | CCCCCCCCCCCCCCC(F)CC(NC(C)=O)(C(=O)OCC)C(=O)OCC (configuration not stated) | 71 to 73
49 | Cc1cc(=O)n2cccc(SC(=O)N(C)C)c2n1 | 165 to 167
50 | Cc1cc(CCCCCCC(OS(=O)(=O)O)c2nnnn2C)on1 (configuration not stated) | 58 to 60
51 | CC1(OCc2ccccc2Cl)COC(CCl)OC1 (configuration not stated) | 53 to 54
52 | O=C(CCC1CCCCC1)C1=C(O)COC1=O | 75 to 78
53 | CC(C)C[C@@H]1NC(=O)[C@@H]1O | 141 to 142
54 | CCCCCCCCOc1ccc(C(C)(C)CC(C)(C)C)cc1S(=O)(=O)NCC(C)c1nn2nc(C)c(Cl)c2[nH]1 (configuration not stated) | 135 to 137

Other lines, results leading:

Row | melting point [°C] | SMILES
55 | 46 to 47 | CC(C)(Cc1ccc(Cl)cc1)C(O)(COc1ccc(Cl)cc1)c1cccnc1 (configuration not stated)
56 | 104 to 106 | CCOC(=O)c1c(CN(CC)CC)nc2sc3c(c2c1-c1ccc(Cl)cc1)CCNC3
57 | 286 to 287 | COc1ccc2oc3ccc(I)cc3c2c1C(=O)Nc1cccnc1
58 | 196 to 197 | O=C(/C=C/c1ccc(S(=O)(=O)N2CCN(c3ccccc3F)CC2)cc1)NO
59 | 126 to 128 | CC(C)(C)C(=O)Oc1cc(OS(=O)(=O)C(F)(F)F)cc2oc(-c3ccccc3)cc(=O)c12
60 | 121 to 123 | C#CCOc1ccc2c(c1)c(-c1ccc(C(C)C)cc1)nc(=O)n2Cc1cccnc1O
61 | 78 to 80 | CCOC(=O)C=C1C(OC)CC1c1cccc(C2(c3ccc(OC(F)F)cc3)N=C(N)N(C)C2=O)c1 (configuration not stated)
62 | 158 to 160 | CCOc1ccccc1COc1ccc2c(c1)C=C(C(=O)O)CCS2(=O)=O
63 | 113 to 114 | COc1cc(CCCn2cncn2)ccc1OCc1coc(/C=C/c2ccccc2)n1
64 | 232 | Nc1ccc(Oc2c(Cl)cc(C(F)(F)F)cc2Cl)cc1S(=O)(=O)c1cc[nH]n1
65 | 296 to 297 | CC(C)(C)c1ccc(C(=O)Nc2cn3nc(NC4CCCCC4)ccc3n2)cc1
66 | 220 to 224 | O=c1nc(NCc2ccccc2)n2c3c1cnn3C(c1cccc(C(F)(F)F)c1)=CC2
67 | 127 to 128 | Cc1nc(N2CCN(CCCc3ccccc3)C2=O)sc1C(=O)NCc1cccnc1
68 | 174 | Cn1c(C(F)(F)F)cc(=O)n(-c2cc(Oc3ccc4cc(O)ccc4c3)c(C#N)cc2F)c1=O
69 | 90 to 91 | N#Cc1cccc(C2=Nc3cc(CO)c(-c4ccccc4F)cc3NC(=O)C2)c1
70 | 212 to 213 | CCN(CC)CCN=C1CC(c2ccc(Cl)c(Cl)c2)Cc2c1c(=O)c1cc(Cl)ccc1n2O (configuration not stated)
71 | 234 to 236 | CCOC(=O)n1[nH]c(=O)c2c([N+](=O)[O-])cccc21
72 | 154 to 156 | C#Cc1cccc(Nc2ncnc3ccc(S(=O)(=O)n4ccc(C=CC(=O)OCC)c4)cc23)c1
73 | 131 to 137 | CCOC(=O)c1c(Nc2c(C)cccc2C)n[nH]c1C
74 | 164 to 166 | Cc1ccc(Cl)c(N2C(=O)C(=O)c3ccccc32)c1Cl
75 | 98 to 99 | COc1cccc(C=O)c1OCc1cccc2ccccc12
76 | > 250 | CCOC(=O)c1c[nH]c2c(-c3ccncc3)c(-c3ccc(F)cc3)nn2c1=O
77 | 39 | CCOC(=O)COc1ccc(C=O)cc1
78 | 267 to 268 | COc1ccc(C(=O)Nc2ccncc2)c2c1oc1ccc(NC(C)=O)cc12

Row | melting point [°C] | SMILES
79 | 189 | N#Cc1ccc(NC(=O)N[C@@H]2C[C@@H]2c2c(F)cccc2Cl)nc1 (relative stereo)
80 | 163 to 165 | CNC(=O)N1CCC(c2nn(-c3ccccc3)c3cc(F)ccc23)CC1
81 | 252 to 253 | O=c1ccn(-c2ccc(F)cc2)nc1-c1ccnn1-c1ccccc1
82 | 229 to 231 | COCc1nnc(-c2cccnc2)n1-c1c(Cl)c(C)cc2[nH]c(=O)c(=O)[nH]c12
83 | 94 to 95 | CCn1nnnc1Cc1ccc(N)cc1
84 | 89 to 91 | O=C(c1cccnc1)N1CCC(c2ccccc2F)=N1
85 | 208 to 210 | O=C(O)c1ccc(COc2ccc(-c3ccc(-c4c(Cc5ccccc5)oc5ccccc45)cc3)cc2)cc1
86 | 164 | COc1ccc(CC2(C(F)F)NC(=O)NC2=O)cc1 (configuration not stated)
87 | 167 | COc1ccc(S(=O)(=O)N2C(=O)C(c3ccccc3OC)(N3c4ccccc4C[C@H]3C(=O)N(C)C)c3cc(Cl)ccc32)c(OC)c1 (some centres not stated)
88 | 163 to 164 | COc1ccc(Cn2cnc3c(-c4ccco4)nc(N(C)C)nc32)cc1
89 | 154 to 155 | CC1(C)OC(c2ccc(S(C)(=O)=O)c(Br)c2)=C(c2ccccc2)C1=O
90 | 116 to 118 | Nc1cccc(NC(=O)NCCCOc2cccc(CN3CCCCC3)c2)c1
91 | 263 | CCCC1=C(C#N)C(c2cccc3ccccc23)c2c[nH]nc2N1 (configuration not stated)
92 | 136 to 141 | COc1ccc(-c2nnn(-c3ccc(F)cc3Cl)c2N)cc1
93 | > 260 | CCOC(=O)c1cnc(N2CCN(S(=O)(=O)c3ccc4ccccc4c3)CC2)nc1
94 | 113 to 116 | Cc1c(-c2ccccc2)n(Cc2ccccc2)c2ccc(Br)cc12
95 | 136 to 138 | CCCCCC(=O)Nc1ccc2ccn(Cc3ccc(C#N)cc3OC)c2c1
96 | 241 to 243 | CCOC(=O)c1c2n(c3cc(N4CCN(Cc5oc(=O)oc5C)CC4)c(F)cc3c1=O)C(C)S2 (configuration not stated)
97 | 133 to 134 | CCOc1nn(Cc2ccc(OCc3nc(-c4ccccc4)oc3C)cn2)cc1CCC(=O)O
98 | 63 to 65 | CCCc1c(OCCCCCC(=O)NCCSc2ccncc2)ccc(C(C)=O)c1O
99 | 175 to 177 | Clc1cc(-c2ccccc2)nc2nn(-c3ccccc3)cc12
100 | 176 to 177 | CNC(=O)C1Cc2c(n(C)c3ccc(OCc4ccccc4)cc23)C1 (configuration not stated)
101 | 110 to 112 | O=C(O)Cc1ccc(-n2cc(F)cn2)c(Cl)c1
102 | 158 to 160 | Fc1ccc(CNc2nc3ccccc3n2-c2ccc(F)c(F)c2)cc1F
